Measurements taken from ChEMBL document CHEMBL1921769, “Synthesis and docking study of 2-phenylaminopyrimidine Abl tyrosine kinase inhibitors” (Bioorg Med Chem Lett, 2011).

Target: Tyrosine-protein kinase ABL1 (Homo sapiens, UniProt P00519)
Assay: Inhibition of Abl using DAIpYAAPFAKKK phosphopeptide as substrate by MALDI-MS analysis

Tyrosine-protein kinase ABL1, sequence (P00519 whole entry): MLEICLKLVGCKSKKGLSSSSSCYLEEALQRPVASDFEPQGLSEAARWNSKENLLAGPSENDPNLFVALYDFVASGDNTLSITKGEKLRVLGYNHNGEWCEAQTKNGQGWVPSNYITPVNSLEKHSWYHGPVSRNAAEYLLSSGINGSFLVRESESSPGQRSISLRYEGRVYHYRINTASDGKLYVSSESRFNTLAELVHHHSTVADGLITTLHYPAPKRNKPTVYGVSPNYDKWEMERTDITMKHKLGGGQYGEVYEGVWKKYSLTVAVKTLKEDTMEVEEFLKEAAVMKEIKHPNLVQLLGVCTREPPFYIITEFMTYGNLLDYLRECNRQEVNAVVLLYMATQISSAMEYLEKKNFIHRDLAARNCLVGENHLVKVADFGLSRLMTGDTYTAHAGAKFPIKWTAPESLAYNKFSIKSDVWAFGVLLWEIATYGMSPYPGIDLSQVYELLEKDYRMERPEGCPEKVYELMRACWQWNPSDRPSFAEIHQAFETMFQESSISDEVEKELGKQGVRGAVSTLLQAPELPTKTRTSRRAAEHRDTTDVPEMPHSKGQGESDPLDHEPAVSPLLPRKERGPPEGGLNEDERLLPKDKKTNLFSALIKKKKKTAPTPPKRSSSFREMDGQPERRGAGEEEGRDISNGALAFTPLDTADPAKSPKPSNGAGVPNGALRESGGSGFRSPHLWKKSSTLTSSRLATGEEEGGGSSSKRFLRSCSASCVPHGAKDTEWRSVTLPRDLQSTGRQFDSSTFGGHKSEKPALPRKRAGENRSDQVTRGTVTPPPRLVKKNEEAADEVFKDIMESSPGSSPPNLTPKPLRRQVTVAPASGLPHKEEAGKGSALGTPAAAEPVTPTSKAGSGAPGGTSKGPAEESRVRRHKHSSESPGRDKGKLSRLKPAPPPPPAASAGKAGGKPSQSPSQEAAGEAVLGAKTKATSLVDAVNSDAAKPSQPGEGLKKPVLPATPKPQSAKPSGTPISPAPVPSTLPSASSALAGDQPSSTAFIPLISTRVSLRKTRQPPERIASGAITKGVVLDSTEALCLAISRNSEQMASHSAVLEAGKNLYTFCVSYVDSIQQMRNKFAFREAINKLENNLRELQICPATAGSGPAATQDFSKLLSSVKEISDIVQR

IC50 [µM]	Compound
12.7	Cc1ccc(NC(=O)c2ccccc2)cc1Nc1nccc(-c2cccnc2)n1
> 25	Cc1ccc(NC(=O)c2ccc(N)c(N)c2)cc1Nc1nccc(-c2cccnc2)n1
1.1	CSc1cccc(C(=O)Nc2ccc(C)c(Nc3nccc(-c4cccnc4)n3)c2)c1
